The target in the test is CDK2 (UniProt P24941). Put plainly: Enzyme Assay.
The term Ki denotes the dissociation constant of the complex between target and ligand, obtained from inhibition or displacement. A high value points to a looser hold on the target. Compound `CC(=O)Nc1ccc(Sc2nc(Nc3cc(C4CC4)n[nH]3)c3ccccc3n2)cc1` registered a Ki below 1000 nM.
With `c1ccc2c(Nc3cc(C4CC4)n[nH]3)nc(Nc3ccc4ncsc4c3)nc2c1`, the Ki was below 1000 nM.
With `Cc1cc(Nc2nc(Nc3ccc4ncsc4c3)nc3ccccc23)[nH]n1` the figure was below 1000 nM.
As to `COc1ccc2c(Nc3cc(C)n[nH]3)nc(Sc3ccc(NC(C)=O)cc3)nc2c1`, the Ki is 1000 to 20000 nM.
As to `CC(=O)Nc1ccc(Sc2nc(Nc3cc(C)n[nH]3)c3cccc(O)c3n2)cc1`, the Ki lay in the range of 1000 to 20000 nM.
Take `CCCS(=O)(=O)Nc1ccc(Sc2nc(Nc3cc(C)n[nH]3)c3ccccc3n2)cc1`: the Ki was in the range of 1000 to 20000 nM.
With `COc1cccc2c(Nc3cc(C)n[nH]3)nc(Sc3ccc(NC(C)=O)cc3)nc12` the figure was 1000 to 20000 nM.
The compound `CCc1ccc(Nc2nc(Nc3cc(C4CC4)n[nH]3)c3ccccc3n2)cc1` yielded a Ki below 1000 nM.
With `N#CCc1ccc(Nc2nc(Nc3cc(C4CC4)n[nH]3)cc(-c3ccccc3)n2)cc1` the figure was below 1000 nM.
The compound `Cc1cc(Nc2nc(Nc3ccc(CC#N)cc3)nc3ccccc23)[nH]n1` returned a Ki below 1000 nM.
`OCCc1ccc(Nc2nc(Nc3cc(C4CC4)n[nH]3)c3ccccc3n2)cc1`: the Ki was below 1000 nM.
Then `Cc1cccc(Sc2nc(Nc3cc(C)n[nH]3)c3ccccc3n2)c1`, with below 1000 nM.
For `CC(=O)Nc1ccc(Sc2nc(Nc3cc(C)n[nH]3)c3ccccc3n2)cc1`, the Ki fell in the range of 1000 to 20000 nM.
